In US11208412B2 (DAEGU-GYEONGBUK MEDICAL INNOVATION FOUNDATION, priority 2017, dated 2021):

Assays:
Assay in all cases: Kinase selectivity, DiscoverX scanMAX Kinase assay panel (% control)
Format in all cases: binding
[1] = target: T1, kinases of the scanMAX Kinase assay panel (Homo sapiens, UniProt Q8NFD2); conditions: ANKK1; 1 uM
T1 construct: purchased DiscoverX Co. (contract measurement) scanMAX Kinase assay panel
T1 sequence (Q8NFD2 1-765): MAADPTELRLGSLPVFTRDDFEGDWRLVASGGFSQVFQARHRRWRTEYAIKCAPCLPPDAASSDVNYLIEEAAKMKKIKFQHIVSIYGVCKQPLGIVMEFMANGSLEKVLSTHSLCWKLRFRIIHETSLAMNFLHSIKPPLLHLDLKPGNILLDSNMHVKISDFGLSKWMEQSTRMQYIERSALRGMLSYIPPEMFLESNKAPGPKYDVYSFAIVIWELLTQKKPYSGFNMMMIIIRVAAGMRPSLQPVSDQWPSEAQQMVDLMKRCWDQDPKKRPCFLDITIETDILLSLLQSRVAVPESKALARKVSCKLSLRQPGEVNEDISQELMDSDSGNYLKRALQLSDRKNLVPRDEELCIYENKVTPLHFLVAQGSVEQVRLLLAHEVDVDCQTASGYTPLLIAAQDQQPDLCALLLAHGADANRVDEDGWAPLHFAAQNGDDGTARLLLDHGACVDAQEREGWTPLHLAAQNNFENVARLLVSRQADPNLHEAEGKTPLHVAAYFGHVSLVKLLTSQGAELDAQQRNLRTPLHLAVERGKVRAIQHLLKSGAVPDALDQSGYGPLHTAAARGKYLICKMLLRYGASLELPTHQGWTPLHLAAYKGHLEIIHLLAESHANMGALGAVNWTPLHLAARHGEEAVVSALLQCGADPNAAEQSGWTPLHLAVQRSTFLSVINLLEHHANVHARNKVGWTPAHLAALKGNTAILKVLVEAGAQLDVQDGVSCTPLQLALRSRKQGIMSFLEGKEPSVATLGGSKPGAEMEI
In short: (§1)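 A 1 uM DMSO solution of compound was applied across the panel kinases, and results were expressed as % control relative to DMSO (100%) and a positive control (0%).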

[2] = target: T2, kinases of the scanMAX Kinase assay panel (Homo sapiens, UniProt Q14680); conditions: MELK; 1 uM
T2 construct: purchased DiscoverX Co. (contract measurement) scanMAX Kinase assay panel
In short: as §1

[3] = target: T3, kinases of the scanMAX Kinase assay panel (Homo sapiens, UniProt P36888, K663Q); conditions: FLT3(K663Q); 1 uM
T3 construct: purchased DiscoverX Co. (contract measurement) scanMAX Kinase assay panel
T3 sequence (P36888 27-993 K663Q): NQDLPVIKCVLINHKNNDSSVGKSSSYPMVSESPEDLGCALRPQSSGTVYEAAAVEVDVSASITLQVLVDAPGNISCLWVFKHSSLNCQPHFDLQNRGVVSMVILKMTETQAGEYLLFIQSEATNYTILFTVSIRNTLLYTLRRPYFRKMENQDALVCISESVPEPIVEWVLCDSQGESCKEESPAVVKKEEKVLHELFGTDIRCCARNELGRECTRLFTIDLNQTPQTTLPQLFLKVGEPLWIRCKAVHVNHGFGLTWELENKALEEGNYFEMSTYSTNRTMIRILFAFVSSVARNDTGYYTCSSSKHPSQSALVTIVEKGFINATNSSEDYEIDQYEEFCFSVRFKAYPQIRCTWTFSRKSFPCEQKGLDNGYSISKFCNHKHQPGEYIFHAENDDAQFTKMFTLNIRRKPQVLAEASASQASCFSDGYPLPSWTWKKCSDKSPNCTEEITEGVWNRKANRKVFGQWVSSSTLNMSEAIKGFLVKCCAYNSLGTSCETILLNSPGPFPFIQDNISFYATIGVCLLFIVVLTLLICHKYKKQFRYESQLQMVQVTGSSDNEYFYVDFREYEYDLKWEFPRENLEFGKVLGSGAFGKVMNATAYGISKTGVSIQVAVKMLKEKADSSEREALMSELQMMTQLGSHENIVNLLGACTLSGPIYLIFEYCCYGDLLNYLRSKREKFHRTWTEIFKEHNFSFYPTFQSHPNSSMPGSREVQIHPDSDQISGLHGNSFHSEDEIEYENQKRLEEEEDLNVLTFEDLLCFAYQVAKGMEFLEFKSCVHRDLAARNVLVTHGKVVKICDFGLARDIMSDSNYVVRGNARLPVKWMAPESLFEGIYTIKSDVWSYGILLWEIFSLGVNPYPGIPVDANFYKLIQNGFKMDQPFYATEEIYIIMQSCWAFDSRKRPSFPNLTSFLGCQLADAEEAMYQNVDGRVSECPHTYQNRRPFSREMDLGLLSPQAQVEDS
In short: as §1

[4] = target: T4, kinases of the scanMAX Kinase assay panel (Homo sapiens, UniProt P50613); conditions: CDK7; 1 uM
T4 construct: purchased DiscoverX Co. (contract measurement) scanMAX Kinase assay panel
In short: as §1

[5] = target: T5, kinases of the scanMAX Kinase assay panel (Homo sapiens, UniProt P00519, Q252H); conditions: 1 uM
T5 construct: purchased DiscoverX Co. (contract measurement) scanMAX Kinase assay panel
In short: as §1

[6] = target: T6, kinases of the scanMAX Kinase assay panel (Homo sapiens, UniProt Q16659); conditions: ERK3; 1 uM
T6 construct: purchased DiscoverX Co. (contract measurement) scanMAX Kinase assay panel
In short: as §1

[7] = target: T7, kinases of the scanMAX Kinase assay panel (Homo sapiens, UniProt O96013); conditions: PAK4; 1 uM
T7 construct: purchased DiscoverX Co. (contract measurement) scanMAX Kinase assay panel
In short: as §1

T6 sequence (Q16659 whole entry): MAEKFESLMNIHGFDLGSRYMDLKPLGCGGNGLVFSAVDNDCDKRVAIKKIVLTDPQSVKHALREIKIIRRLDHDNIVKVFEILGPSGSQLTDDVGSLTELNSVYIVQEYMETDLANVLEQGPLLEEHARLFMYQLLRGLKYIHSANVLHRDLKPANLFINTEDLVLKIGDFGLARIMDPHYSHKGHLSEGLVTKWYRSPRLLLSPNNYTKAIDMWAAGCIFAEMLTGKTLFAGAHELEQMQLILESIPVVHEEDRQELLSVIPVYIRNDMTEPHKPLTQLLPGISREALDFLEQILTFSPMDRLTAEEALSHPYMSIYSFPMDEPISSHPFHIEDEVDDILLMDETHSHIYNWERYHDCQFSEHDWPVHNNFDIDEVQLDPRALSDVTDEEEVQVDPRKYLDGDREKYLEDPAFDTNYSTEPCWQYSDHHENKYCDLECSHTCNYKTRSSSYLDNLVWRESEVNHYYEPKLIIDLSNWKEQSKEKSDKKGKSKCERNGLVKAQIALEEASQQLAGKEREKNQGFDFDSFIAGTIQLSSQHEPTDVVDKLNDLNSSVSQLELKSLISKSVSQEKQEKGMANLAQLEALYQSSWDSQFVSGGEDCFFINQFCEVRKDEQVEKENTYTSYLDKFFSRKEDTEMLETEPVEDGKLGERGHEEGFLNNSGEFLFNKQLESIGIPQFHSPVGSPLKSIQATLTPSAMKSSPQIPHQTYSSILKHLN
T2 sequence (Q14680 whole entry): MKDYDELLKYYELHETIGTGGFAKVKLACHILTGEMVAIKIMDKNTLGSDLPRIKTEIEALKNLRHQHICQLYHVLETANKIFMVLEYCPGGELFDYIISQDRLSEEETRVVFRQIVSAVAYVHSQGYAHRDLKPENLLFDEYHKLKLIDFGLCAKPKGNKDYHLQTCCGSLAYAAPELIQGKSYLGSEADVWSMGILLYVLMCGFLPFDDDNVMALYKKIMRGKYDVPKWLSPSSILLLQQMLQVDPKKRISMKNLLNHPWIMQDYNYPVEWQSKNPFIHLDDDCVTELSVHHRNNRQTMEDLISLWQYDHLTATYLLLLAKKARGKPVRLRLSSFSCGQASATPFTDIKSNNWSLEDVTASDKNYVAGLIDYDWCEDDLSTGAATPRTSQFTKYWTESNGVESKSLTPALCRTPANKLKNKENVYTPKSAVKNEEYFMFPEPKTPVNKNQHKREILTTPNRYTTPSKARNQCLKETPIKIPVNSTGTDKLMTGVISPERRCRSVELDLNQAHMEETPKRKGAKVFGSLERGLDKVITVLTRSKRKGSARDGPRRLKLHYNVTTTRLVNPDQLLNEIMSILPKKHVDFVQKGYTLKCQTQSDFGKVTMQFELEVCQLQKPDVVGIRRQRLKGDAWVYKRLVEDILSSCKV
T7 sequence (O96013 whole entry): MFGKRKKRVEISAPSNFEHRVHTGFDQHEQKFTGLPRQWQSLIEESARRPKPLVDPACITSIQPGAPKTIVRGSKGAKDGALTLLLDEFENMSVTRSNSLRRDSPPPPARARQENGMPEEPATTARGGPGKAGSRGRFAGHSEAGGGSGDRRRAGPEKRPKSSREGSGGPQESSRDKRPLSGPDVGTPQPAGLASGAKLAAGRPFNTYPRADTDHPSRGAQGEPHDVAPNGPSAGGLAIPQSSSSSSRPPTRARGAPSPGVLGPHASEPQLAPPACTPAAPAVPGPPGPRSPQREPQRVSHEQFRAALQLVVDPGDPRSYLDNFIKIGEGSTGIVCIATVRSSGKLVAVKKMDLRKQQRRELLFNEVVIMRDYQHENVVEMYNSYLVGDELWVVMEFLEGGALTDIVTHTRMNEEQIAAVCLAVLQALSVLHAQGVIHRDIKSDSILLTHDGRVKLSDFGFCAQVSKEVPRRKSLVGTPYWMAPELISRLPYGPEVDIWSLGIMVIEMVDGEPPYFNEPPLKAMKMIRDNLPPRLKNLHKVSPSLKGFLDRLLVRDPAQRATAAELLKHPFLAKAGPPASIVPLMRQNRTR
T4 sequence (P50613 whole entry): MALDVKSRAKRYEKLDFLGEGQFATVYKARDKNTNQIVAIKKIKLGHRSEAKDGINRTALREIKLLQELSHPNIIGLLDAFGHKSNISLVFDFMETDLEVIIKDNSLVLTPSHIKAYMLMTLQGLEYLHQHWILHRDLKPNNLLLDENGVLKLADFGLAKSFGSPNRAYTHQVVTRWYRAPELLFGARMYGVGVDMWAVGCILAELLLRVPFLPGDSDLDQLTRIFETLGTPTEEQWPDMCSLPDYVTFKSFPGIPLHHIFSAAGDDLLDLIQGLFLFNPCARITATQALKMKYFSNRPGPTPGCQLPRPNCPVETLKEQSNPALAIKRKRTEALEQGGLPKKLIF

**Q.** What does the source list for `CNc1nc(Nc2ccc(C(=O)N3CCOCC3)cc2OC)nc2[nH]cc(C#N)c12` [Example 1, 2-((2-methoxy-4-(morpholine-4-carbonyl)phenyl)amino)-4-(methylamino)-7H-pyrrolo[2,3-d]pyrimidine-5-carbonitrile]?
**A.** remaining binding at 1 µM [1]: 82%; remaining binding at 1 µM [2]: 78%; remaining binding at 1 µM [3]: 92%; remaining binding at 1 µM [4]: 67%; remaining binding at 1 µM ([5]; ABL1(Q252H)-nonphosphorylated): 57%; remaining binding at 1 µM ([5]; ABL1(Q252H)-phosphorylated): 100%; remaining binding at 1 µM [6]: 89%; remaining binding at 1 µM [7]: 79%

**Q.** For `CC1(Nc2nc(Nc3cnn([C@H]4CCN(C5COC5)C[C@@H]4F)c3Cl)nc3[nH]cc(C#N)c23)CC1` [Example 52, 2-((5-chloro-1-((3S,4S)-3-fluoro-1-(oxetane-3-yl)piperidine-4-yl)-1H-pyrazole-4-yl)amino)((1-methylcyclopropyl)amino)-7H-pyrrolo[2,3-d]pyrimidine-5-carbonitrile], which remaining binding at 1 µM [1] is on record?
**A.** 15%

**Q.** What about the remaining binding at 1 µM [2] of the same compound?
**A.** 6.3%

**Q.** What about the remaining binding at 1 µM [3] of the same compound?
**A.** 0.1%

**Q.** And the remaining binding at 1 µM [4]?
**A.** 19%

**Q.** And the remaining binding at 1 µM ([5]; ABL1(Q252H)-nonphosphorylated)?
**A.** 1.1%

**Q.** What about the remaining binding at 1 µM ([5]; ABL1(Q252H)-phosphorylated) of the same compound?
**A.** 0.25%

**Q.** What about the remaining binding at 1 µM [6] of the same compound?
**A.** 54%

**Q.** What about the remaining binding at 1 µM [7] of the same compound?
**A.** 3.4%

**Q.** With `CCNc1nc(Nc2ccc(C(=O)N3CCC(N4CCOCC4)CC3)cc2OC)nc2[nH]cc(C(F)(F)F)c12` [Example 104, (4-((4-(ethylamino)-5-(trifluoromethyl)-7H-pyrrolo[2,3-d]pyrimidine-2-yl)amino)-3-methoxyphenyl)(4-morpholinopiperidine-1-yl)methanone] as the compound, how does the remaining binding at 1 µM [1] read?
**A.** 95%

**Q.** And the remaining binding at 1 µM [2]?
**A.** 79%

**Q.** What about the remaining binding at 1 µM [3] of the same compound?
**A.** 64%

**Q.** What about the remaining binding at 1 µM [4] of the same compound?
**A.** 48%

**Q.** And the remaining binding at 1 µM ([5]; ABL1(Q252H)-nonphosphorylated)?
**A.** 99%

**Q.** And the remaining binding at 1 µM ([5]; ABL1(Q252H)-phosphorylated)?
**A.** 82%

**Q.** What about the remaining binding at 1 µM [6] of the same compound?
**A.** 95%

**Q.** And the remaining binding at 1 µM [7]?
**A.** 100%
